Experimental data reported in the supplement of paper PMC10307832.

Experiments:
Experiment in all cases: relative viability (nuclei count vs DMSO), 5 days (fraction); higher = more cells survive
[1] = compound: CC1=CC(=NN1)NC2=CC(=NC(=N2)/C=C/C3=CC=CC=C3)N4CCN(CC4)C + CC(C)C[C@H](NC(=O)[C@H](Cc1ccccc1)NC(=O)c1cnccn1)B(O)O [Bortezomib] (partner 0.002 µM)
Procedure, shortened: (§1)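 Medians of duplicate plates are given as relative viability. That measure is the nuclei count in treated wells divided by the count in vehicle wells. Counts were taken on 4× images of lung cancer cell lines in 1536-well plates, 5 days after pin-tool dosing the day after seeding with one drug alone or a fixed anchor-drug dose plus five library-drug doses (not always all listed) in √10 steps.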

[2] = compound: CC(C)C[C@H](NC(=O)[C@H](Cc1ccccc1)NC(=O)c1cnccn1)B(O)O [Bortezomib] + N=C(N)NC(=N)NCCc1ccccc1 [Phenformin] (partner 250 µM)
Procedure, shortened: as §1

[3] = compound: CC1=CC(=NN1)NC2=CC(=NC(=N2)/C=C/C3=CC=CC=C3)N4CCN(CC4)C + C[C@@H](Oc1cc(-c2cnn(C3CCNCC3)c2)cnc1N)c1c(Cl)ccc(F)c1Cl [Crizotinib] (partner 1 µM)
Procedure, shortened: as §1

[4] = compound: COC1=CC(c2cc3ccccc3[nH]2)=N/C1=C\c1[nH]c(C)cc1C [Obatoclax]
Procedure, shortened: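 MetaXpress counted nuclei in 4× images of lung cancer cell lines that had been fixed, permeabilised and Hoechst-stained in one step. Before that, cells in 1536-well plates were kept overnight at 37 °C, pinned with five √10-spaced library-drug doses on vehicle-anchored plates, and cultured 5 days without medium change. Viability takes treated-well nuclei over vehicle-well nuclei and uses the median across plates. Plates were accepted only at control CV below 25% and at least one doubling.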

Cell Line | relative viability ([1]; first compound 0.08 µM) | relative viability ([1]; first compound 0.253 µM) | relative viability ([1]; first compound 0.8 µM) | relative viability ([1]; first compound 2.53 µM) | relative viability ([1]; first compound 8 µM) | relative viability ([2]; first compound 0.0002 µM) | relative viability ([2]; first compound 0.000632 µM) | relative viability ([2]; first compound 0.002 µM) | relative viability ([2]; first compound 0.006325 µM) | relative viability ([2]; first compound 0.02 µM) | relative viability ([3]; first compound 0.08 µM) | relative viability ([3]; first compound 0.253 µM) | relative viability ([3]; first compound 0.8 µM) | relative viability ([3]; first compound 2.53 µM) | relative viability ([3]; first compound 8 µM) | relative viability ([4]; 0.01 µM) | relative viability ([4]; 0.03162 µM) | relative viability ([4]; 0.1 µM) | relative viability ([4]; 0.3162 µM) | relative viability ([4]; 1 µM)
SK-LU-1 | 1.1 | 1.28 | 1.01 | 0.429 | 0.195 | 0.561 | 0.499 | 0.467 | 0.122 | 0.0951 | 1.01 | 0.792 | 0.725 | 0.274 | 0.137 | 1.03 | 1.04 | 0.797 | 0.808 | 0.616
NCI-H2023 | 1.01 | 1.12 | 0.91 | 0.0954 | 0.0652 | 0.494 | 0.411 | 0.389 | 0.0877 | 0.0739 | 0.631 | 0.611 | 0.343 | 0.0794 | 0.0532 | 0.928 | 0.969 | 0.946 | 0.774 | 0.229
HCC-366 | 0.993 | 1.18 | 1.03 | 0.0189 | 0.0155 | 0.621 | 0.542 | 0.629 | 0.578 | 0.0354 | 0.6 | 0.628 | 0.357 | 0.0171 | 0.01 | 1 | 1.05 | 1.02 | 1.01 | 0.744
NCI-H1355 | 1.16 | 1.17 | 1.16 | 0.885 | 0.168 | 0.446 | 0.414 | 0.493 | 0.381 | 0.176 | 1 | 1.04 | 1.07 | 0.756 | 0.253 | 1.03 | 0.913 | 0.918 | 0.96 | 0.947
NCI-H1650 | 0.209 | 0.191 | 0.182 | 0.183 | 0.19 | 0.385 | 0.303 | 0.139 | 0.16 | 0.149 | 1.07 | 1.05 | 0.63 | 0.192 | 0.109 | 0.938 | 0.981 | 0.879 | 0.646 | 0.34
SW 1573 | 1.13 | 1.02 | 1.02 | 0.348 | 0.1 | 0.384 | 0.349 | 0.205 | 0.0918 | 0.0612 | 0.886 | 0.829 | 0.604 | 0.194 | 0.1 | 1.07 | 0.957 | 0.966 | 0.709 | 0.257
NCI-H661 | 0.741 | 0.906 | 0.839 | 0.669 | 0.203 | 0.286 | 0.292 | 0.302 | 0.239 | 0.204 |  | 1.23 | 1.08 | 0.945 | 0.383 | 0.96 | 0.962 | 1.02 | 0.883 | 0.842
LU99A | 1.13 | 0.993 | 0.779 | 0.25 | 0.127 | 0.789 | 0.782 | 0.898 | 0.85 | 0.328 | 0.554 | 0.549 | 0.452 | 0.16 | 0.13 | 0.925 | 0.963 | 0.622 | 0.922 | 0.364
LCLC-97TM1 | 0.742 | 0.57 | 0.77 | 0.114 | 0.0579 | 0.426 | 0.403 | 0.433 | 0.257 | 0.159 | 0.381 | 0.352 | 0.292 | 0.152 | 0.078 | 0.988 | 0.801 | 1.31 | 0.856 | 0.908
LC-2-ad | 0.938 | 1.03 | 0.602 | 0.289 | 0.0902 | 0.686 | 0.507 | 0.557 | 0.19 | 0.146 | 0.475 | 0.469 | 0.365 | 0.303 | 0.186 | 0.988 | 0.988 | 0.81 | 0.896 | 0.564
NCI-H2228 | 0.96 | 0.917 | 0.74 | 0.0986 | 0.0661 | 0.271 | 0.31 | 0.257 | 0.0882 | 0.0761 | 0.586 | 0.45 | 0.33 | 0.0992 | 0.0441 | 0.951 | 0.922 | 1.01 | 0.791 | 0.595
HOP-62 | 0.9 | 0.549 | 1.07 | 0.403 | 0.107 | 0.661 | 0.625 | 0.54 | 0.151 | 0.0609 | 0.985 | 0.963 | 0.979 | 0.706 | 0.229 | 1.01 | 0.985 | 0.889 | 1.02 | 1.05
NCI-H2347 | 0.829 | 1.21 | 1.04 | 1.32 | 0.461 | 0.493 | 0.512 | 0.594 | 0.298 | 0.257 | 0.855 | 0.784 | 0.545 | 0.573 | 0.262 | 0.999 | 0.946 | 0.843 | 0.946 | 0.926
NCI-H2087 | 0.792 | 1.03 | 0.818 | 0.648 | 0.11 | 0.451 | 0.441 | 0.312 | 0.0487 | 0.0431 | 0.968 | 0.58 | 0.769 | 0.567 | 0.179 | 1.01 | 1.14 | 0.8 | 0.876 | 0.298
